Experimental data from US12358921B2, “Antiviral heterocyclic compounds” (priority 2022, dated 2025).

Columns and labels:
Format in all cases: cell-based
[1] = tested on: HUMAN RSV-A (“LONG” STRAIN); experiment: RSV-A assay (CPE, ATPlite) in Hep-2 cells; settings: human respiratory syncytial virus, 120 h, MOI 0.1, 5-day incubation
Procedure, shortened: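 Hep-2 cells (8,000/well) given 2-fold serial compound dilutions in duplicate, then infected with RSV-A Long strain at MOI 0.1. After 5 days, virus-induced cytopathic effect quantified as cellular ATP by ATPlite luminescence, against virus-only and uninfected controls; EC50 reported in ranges.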

[2] = tested on: hMPV A2 TN/94-49; experiment: HMPV antiviral assay Method 1 (LLC-MK2 cells, ATP-Lite); settings: hMPV A2 TN/94-49, LLC-MK2 cells
Method: In vitro HMPV antiviral activity was evaluated using the clinical isolate A2 strain TN 94-49 (obtained from Dr. John Williams, Vanderbilt University, Tennessee) and […] cells (ATCC #CCL-7), an immortalized kidney epithelial cell line from Macaca mulatta. Compounds were resuspended in dimethyl sulfoxide (DMSO) at 10 mM, serially diluted and added to a 384-well source plate. Subsequently, the compounds were diluted and transferred onto 384-well assay plates using the Echo-650 automated liquid handling system (Beckman Coulter, Indiana). The test compounds were assessed in duplicate at a top concentration of 2 μM followed by 2.5-fold serial dilutions to give a total of 10 concentration points. DMSO control wells were also included on the assay plates and were either infected or not, acting as positive and negative controls. A2 TN 94-49 virus infections were performed in-suspension with LLC-MK2 cells. The cells were washed twice with PBS and removed from the cell-culture flask with 0.25% trypsin-EDTA (Thermo Fisher Scientific, MA). The trypsin-EDTA was inactivated by resuspending in 2% fetal bovine serum (FBS) and OptiMEM (ThermoFisher Scientific, MA) containing 1% penicillin-streptomycin. Cells were pelleted by centrifuging for 5 minutes at 800 rpm, the supernatant was removed, and cells were re-suspended and washed in PBS plus 100 μg/mL CaCl2). This step was performed twice. Cells were then re-suspended in serum-free (SF)-OptiMEM containing 4 μg/mL TPCK-Trypsin (Sigma Aldrich, MO), 1% penicillin-streptomycin (ThermoFisher Scientific, MA) and 100 μg/mL CaCl2). Cells were counted and seeded at a density of 5,000 cells/well, 12.5 μL/well. Virus infections were done at a multiplicity of infection (MOI) of 0.005 with 12.5 μL added per well. Virus infections were performed in infection media which contained SF-OptiMEM, 100 μg/mL CaCl2) and 1% penicillin-streptomycin. HMPV viral stocks are suspended in infection media+5% glycerol, thus an equal volume of infection media+5% glycerol was added to uninfected wells to equalize the final % glycerol across all wells of the assay plate. The final concentration of TPCK-trypsin was 2 μg/mL. The assay plates were incubated at 37° C., 5% CO2 for 7 days. After 7 days incubation, 12.5 μL of ATP-Lite (PerkinElmer, MA) was added to each well and the raw luminescence values were determined using the Envision 2104 (Perkin Elmer, MA). The average of the raw luminescence values for the cells and virus only positive control wells was subtracted from all conditions tested and the percent cell health was determined by dividing these values by the average of the cells only negative control wells. EC50 values were then calculated by non-linear regression using a four-parameter curve logistic equation. The curve fit model employed was XLFit Dose Response One Site Model 200: y=(A+(B/(1+((x/C)^D)))), where A is the minimum y value, B is the maximum y value, C is the log EC50value, and D is the slope factor. Method 2: In Vitro HMPV Antiviral Activity was Evaluated Using the Clinical Isolate A2 Strain TN 94-49

[3] = tested on: hMPV A2 TN/94-49; experiment: HMPV antiviral assay Method 2 (LLC-MK2 cells with CP-100-356, ATP-Lite); settings: hMPV A2 TN/94-49, LLC-MK2 cells, 4 μM CP-100-356, Method 2
Procedure, shortened: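 LLC-MK2 cells infected in suspension with hMPV A2 TN/94-49 at MOI 0.16, in serum-free OptiMEM with final 2 μg/mL TPCK-trypsin and 2 μM CP-100-356 (P-gp inhibitor). Compounds tested in duplicate, top 200 nM, 2.5-fold, 10 points; 7 days at 37 °C. ATP-Lite cell health normalised to controls; EC50 by four-parameter fit.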

Compound | EC50 [1] [nM] | EC50 [2] [nM] | EC50 [3] [nM]
COc1cc(C(=O)NC[C@@](O)(c2ccc(F)cc2)c2cc3c(c(-c4cc(Cl)c(F)cc4F)n2)OC[C@]3(C)C(N)=O)cc2cc(Cl)c(C)nc12 [Example 17] | < 200 | < 500 | 
COc1cc(C(=O)NC[C@@](O)(c2ccccc2)c2cc3c(c(-c4ccc5c(c4Cl)OC(F)(F)O5)n2)OC[C@]3(C)C(N)=O)cc2cc(C3CC3)nn12 [Example 254] | < 200 | < 500 | 
COc1cc(C(=O)NC[C@](O)(c2cc3c(c(-c4ccc(C)c(C(F)(F)F)c4)n2)OC[C@]3(C)C(N)=O)C2CC2)cc2cn(C3CC3)nc12 [Example 56] | < 200 | > 500 | 
COc1cc(C(=O)NC[C@](O)(c2cc3c(c(-c4cc(Cl)cc(C)c4F)n2)OC[C@]3(C)C(N)=O)C2CC2)cc2cn(C3CC3)nc12 [Example 47] | < 200 | > 500 | 
COc1cc(C(=O)NC[C@](O)(c2cc3c(c(-c4cc(C(F)(F)F)ccc4C)n2)OC[C@]3(C)C(N)=O)C2CC2)cc2cn(C3CC3)nc12 [Example 53] | < 200 | < 500 | 
COc1cc(C(=O)NC[C@](O)(c2cc3c(c(-c4ccc(Cl)c(Cl)c4Cl)n2)OC[C@]3(C)C(N)=O)C2CC2)cc2cn(C3CC3)nc12 [Example 60] | < 200 | < 500 | 
C[C@]1(C(N)=O)COc2c1cc([C@@](O)(CNC(=O)c1cc(OC(F)F)c3nn(C4CC4)cc3c1)C1CC1)nc2-c1ccc(F)c(F)c1Cl [Example 39] | < 200 | < 500 | 
COc1cc(C(=O)NC[C@@](O)(c2ccc(F)cc2)c2cc3c(c(-c4ccc(F)c(Cl)c4Cl)n2)OC[C@]3(C)C(N)=O)cc2cc(C3CC3)nn12 [Example 45] | < 200 | < 500 | 
[2H]c1nc2c(OC)cc(C(=O)NC[C@](O)(c3cc4c(c(-c5cc(F)c(F)cc5F)n3)OC[C@]4(C)C(N)=O)C3CC3)cc2cc1Br [Example 30] | < 200 | < 500 | 
COc1cc(C(=O)NC[C@](O)(c2cc3c(c(-c4cc(Cl)c(C)cc4F)n2)OC[C@]3(C)C(N)=O)C2CC2)cc2cn(C3CC3)nc12 [Example 51] | < 200 | > 500 | 
COc1cc(C(=O)NC[C@@](O)(c2ccsc2)c2cc3c(c(-c4cc(F)c(F)cc4F)n2)OC[C@]3(C)C(N)=O)cc2cn(C(F)F)nc12 [Example 178] | < 200 | < 500 | 
C[C@]1(C(N)=O)COc2c1cc([C@@](O)(CNC(=O)c1cc(OC(F)F)c3nn(C4CC4)cc3c1)C1CC1)nc2-c1cc(F)c(F)cc1F [Example 6] | < 200 | < 500 | 
COc1cc(C(=O)NC[C@@](O)(c2cc3c(c(-c4cc(Cl)c(F)cc4F)n2)OC[C@]3(C)C(N)=O)c2cnn[nH]2)cc2cn(C3CC3)nc12 [Example 181] | > 200 | > 500 | 
C[C@]1(C(N)=O)COc2c1cc([C@@](O)(CNC(=O)c1cc(Cl)c3nn(C4CC4)cc3c1)C1CC1)nc2-c1ccc2c(c1Cl)OC(F)(F)O2 [Example 35] | < 200 | < 500 | 
COc1cc(C(=O)NC[C@@](O)(c2ccsc2)c2cc3c(c(-c4cc(Cl)c(F)cc4F)n2)OC[C@]3(C)C(N)=O)cc2cn(C3CC3)nc12 [Example 173] | < 200 | < 500 | 
COc1cc(C(=O)NC[C@](O)(c2cc3c(c(-c4ccc(F)cc4O)n2)OC[C@]3(C)C(N)=O)C2CC2)cc2cn(C3CC3)nc12 [Example 63] | < 200 | > 500 | 

Compound | EC50 [1] [nM] | EC50 [2] [nM] | EC50 [3] [nM]
[2H]C([2H])([2H])c1nc2c(OC)cc(C(=O)NC[C@@](O)(c3ccc(F)cc3)c3cc4c(c(-c5cc(Cl)c(F)cc5F)n3)OC[C@]4(C)C(N)=O)cc2s1 [Example 16] | < 200 | < 500 | 
COc1cc(C(=O)NC[C@@](O)(c2ccccc2)c2cc3c(c(-c4cc(Cl)c(F)cc4F)n2)OC[C@]3(C)C(=O)NC2CC2)cc2cn(C3CC3)nc12 [Example 143] | < 200 | < 500 | 
[2H]C([2H])([2H])c1nc2c(OC(F)F)cc(C(=O)NC[C@](O)(c3cc4c(c(-c5cc(Cl)c(F)cc5F)n3)OC[C@]4(C)C(N)=O)C3CC3)cc2cc1Br [Example 11] | < 200 | > 500 | 
[2H]C([2H])([2H])c1nc2c(OC)cc(C(=O)NC[C@](O)(c3cc4c(c(-c5cc(F)c(F)cc5F)n3)OC[C@]4(C)C(N)=O)C3CC3)cc2cc1Br [Example 7] | < 200 | < 500 | 
COc1cc(C(=O)NC[C@](O)(c2cc3c(c(-c4cc(Cl)c(F)cc4F)n2)OC[C@]3(C)C(N)=O)c2ccccc2F)cc2cn(C3CC3)nc12 [Example 136] | < 200 | < 500 | 
COc1cc(C(=O)NC[C@@](O)(c2cc3c(c(-c4ccc(F)cc4O)n2)OC[C@]3(C)C(N)=O)C2CC2)cc2cn(C3CC3)nc12 [Example 64] | < 200 | > 500 | 
C[C@]1(C(N)=O)COc2c1cc([C@@](O)(CNC(=O)c1ccc3nc(N)sc3c1)c1ccccc1)nc2-c1ccc2c(c1Cl)OC(F)(F)O2 [Example 256] | < 200 | < 500 | 
COc1cc(C(=O)NC[C@@](O)(c2ccccc2)c2cc3c(c(-c4cc(Cl)c(F)cc4F)n2)OC[C@]3(C)C(N)=O)cc2ccc(C)nc12 [Example 79] |  | < 500 | 
COc1cc(C(=O)NC[C@@](O)(c2cc3c(c(-c4cc(Cl)c(F)cc4F)n2)OC[C@]3(C)C(N)=O)c2cc(C)cs2)cc2cn(C3CC3)nc12 [Example 466] |  | > 500 | 
C[C@]1(C(N)=O)COc2c1cc([C@@](O)(CNC(=O)c1ccc3nc(C(F)(F)F)oc3c1)c1ccccc1)nc2-c1cc(Cl)c(F)cc1F [Example 82] |  | > 500 | 
COc1cc(C(=O)NC[C@@](O)(c2ccccc2)c2cc3c(c(-c4cc(Cl)c(F)cc4F)n2)OC[C@]3(C)C(N)=O)cc2cc(C(F)(F)F)cnc12 [Example 83] |  | < 500 | 
COc1cc(C(=O)NC[C@@](O)(c2ccccc2)c2cc3c(c(-c4cc(Cl)c(F)cc4F)n2)OC[C@]3(C)C(N)=O)cc2oc(C)nc12 [Example 84] |  | < 500 | 
C[C@]1(C(N)=O)COc2c1cc([C@@](O)(CNC(=O)c1cc(OC3CC3)c3ncc(Cl)cc3c1)c1ccccc1)nc2-c1cc(F)c(F)cc1F [Example 197] | < 200 |  | < 200
Cc1nc2ccc(C(=O)NC[C@@](O)(c3ccccc3)c3cc4c(c(-c5cc(F)c(F)cc5F)n3)OC[C@]4(C)C(N)=O)cc2o1 [Example 192] | < 200 |  | < 200
COc1cc(C(=O)NC[C@@](O)(c2cccc(F)c2)c2cc3c(c(-c4cc(F)c(F)cc4C(N)=O)n2)OC[C@]3(C)C(N)=O)cc2cn(C3(F)CC3)nc12 [Example 405] | > 200 |  | > 200
COc1cc(C(=O)NC[C@@](O)(c2cc[nH]c(=O)c2)c2cc3c(c(-c4cc(Cl)c(F)cc4F)n2)OC[C@]3(C)C(N)=O)cc2cn(C3CC3)nc12 [Example 504] | < 200 |  | > 200
